The assay relates to CEM cells HIV-1 protection, formazan growth assay. Nature of the assay: NCI AIDS Antiviral Assay. The conditions noted are these: for IC50: measured here: growth of uninfected CEM cells. In a few lines: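 Steps: treat uninfected and HIV-1-infected human CEM cells at five drug levels; quantify growth by soluble formazan; retest any compound reaching 50% protection; classify actives from the retest.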

Activity calls are given as the source filed them.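 Rule for the calls: active = compounds giving half or more protection of infected cells from virus-caused growth loss, again on retest; inactive = the rest.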 Where a SMILES comes first, the peptide text is derived from it. The star is where a group is joined. Boc = CC(C)(C)OC(=O)*

With `Clc1cccc(Cl)c1C1CSc2ccccc2N=C1c1ccccc1` (stereo not given), the EC50 is over 57.5 µM and the IC50 turned out to be 7.24 µM.
Take `CCN1c2ccccc2NC(=S)c2c1n[nH]c2-c1ccccc1`: the EC50 was over 200 µM and the 50% inhibitory concentration (IC50) came to 53.7 µM.
In the case of `C[C@]12CCC[C@H](OC=O)C1(O)C[C@H](C(=O)O)CC2` (stereo not given in full), the outcome was inactive.
On to `c1cncc(-c2ncc3cccnc3n2)c1`, for which the EC50 is over 100 µM and the concentration for half-maximal inhibition (IC50) is over 100 µM.
For the molecule `CC(=O)NC1C(OCc2ccccc2)OC(CO)C(O)C1OCC(=O)N1CCCC1C(=O)NC(CCC(=O)NCCCCCNc1c2ccccc2nc2cccc([N+](=O)[O-])c12)C(N)=O` (stereo not given), the EC50 was over 200 µM and the IC50 was 0.209 µM.
On to `O=[N+]([O-])C(=C(Nc1ccccc1)Nc1ccccc1)C(Cl)=C(Cl)Cl`, for which the EC50 is over 200 µM and the IC50 stood at 17.4 µM.
Regarding `COc1ccccc1/C(=N\OCCC(=O)O)c1cccs1`, the result was inactive.
For the molecule `CSC1=N/C(=C\c2ccc(C)cc2)C(=O)N1CN1CCOCC1`, the EC50 was over 200 µM and the IC50 came out at 34.7 µM.
Regarding `Clc1ccc(-c2nnc3c4nnc(-c5ccc(Cl)cc5Cl)n4c4ccccc4n23)c(Cl)c1`, the result was inactive.
With `COC(=O)C(=O)C(C(=O)C(=O)Nc1nc(=S)[nH][nH]1)c1nc2ccc([N+](=O)[O-])cc2[nH]c1=O` (stereo not given), the EC50 was over 282 µM and the IC50 was over 282 µM.
With `COC(=O)C1(Cc2ccccc2)Cc2ccc3c(c2C1=O)CCC3` (stereo not given), the EC50 is over 200 µM and the IC50 was over 200 µM.
As to `O=[N+]([O-])c1cccc(-c2oc(C=Nc3ccccc3)c([N+](=O)[O-])c2-c2cccc([N+](=O)[O-])c2)c1`, the EC50 is over 56.2 µM and the IC50 is over 56.2 µM.
`On1c(-c2ccccc2)c(-c2ccccc2N2CCCC2)c2ccccc21`: the result was inactive.
In the case of `N#CNC1=NCOCN1`, the EC50 is over 708 µM and the concentration for half-maximal inhibition (IC50) is over 708 µM.
As for `CC(C)N(C(=O)C12C3C4C1(I)C1C2C3(I)C41C(=O)N(C(C)C)C(C)C)C(C)C` (stereo not given), the EC50 was over 8.51 µM and the IC50 is over 8.51 µM.
Turning to `C[C@]12CC(C#N)C(=O)C(O)=C1CC[C@@H]1C2CC[C@@]2(C)C1CC[C@@H]2O` (stereo not given in full), the outcome was inactive.
`Oc1ccc(O)c(-n2cccn2)c1-n1cccn1`: the EC50 was over 110 µM and the IC50 came to 42.7 µM.
For the molecule `NCCSSC/C=C\CSSCCN`, the result was inactive.
For the molecule `CCCCC/C(=N\c1nc[nH]c1C(N)=O)OCC`, the EC50 is over 200 µM and the IC50 is over 200 µM.
Take `NC(=Nc1ccccc1)N(c1ccccc1)c1nc(=S)ss1`: the EC50 was over 200 µM and the half-maximal inhibitory concentration (IC50) was 83.2 µM.
Turning to `O=c1nc2occc2cn1C1CC(O)C(CO)O1` (stereo not given), the EC50 was over 513 µM and the 50% inhibitory concentration (IC50) was over 513 µM.
Take `Fc1ccc2c(c1)SC1Oc3ccccc3-c3c1c-2nn3-c1ccccc1` (stereo not given): the EC50 was over 19.5 µM and the IC50 was over 19.5 µM.
`Cc1ccc(NC(=S)N/N=C(/c2ccccc2)c2ccccn2)cc1`: the EC50 is over 0.2 µM and the IC50 was 0.105 µM.
With `O=C(O)CCNS(=O)(=O)c1ccc2ccccc2c1`, the outcome was inactive.
As to `CC1Cn2c(nc3ccccc32)NC1=O` (stereo not given), the EC50 was over 200 µM and the IC50 is over 200 µM.
As for `Cc1nc2c(nc1C)C(=O)C=CC2=O`, the EC50 is over 200 µM and the half-inhibitory concentration (IC50) was 11.5 µM.
Consider `O[C@H]1C=CC[C@H]2C(F)(F)[C@](F)(Cl)[C@@]12Cl`, for which the EC50 is over 1000 µM and the IC50 is 186 µM.
For `COc1cc(-c2coc3cc(O)ccc3c2=O)c(O)c(OC)c1OC`, the EC50 is over 200 µM and the IC50 was found to be 72.4 µM.
As for `Oc1c(Br)ccc2cccnc12`, the EC50 was over 20 µM and the IC50 was 0.794 µM.
With `CCOc1ccccc1NC(=O)C(=O)C(C(=O)c1ccc2ccccc2c1)C1OC(=O)c2ccccc21` (stereo not given), the EC50 is over 72.4 µM and the concentration for half-maximal inhibition (IC50) was found to be 31.6 µM.
In the case of `O=C1/C(=C/c2cccc([N+](=O)[O-])c2)Sc2scc(-c3ccc([N+](=O)[O-])cc3)[n+]21`, the EC50 was over 200 µM and the IC50 was 38 µM.
On to `COC(=O)C(Cc1c[nH]c2ccccc12)NC(=O)C(Cc1c[nH]c2ccccc12)NC(=O)C(Cc1c[nH]c2ccccc12)NC(=O)C(Cc1c[nH]c2ccccc12)NC(=O)C(Cc1c[nH]c2ccccc12)NC(=O)C(Cc1c[nH]c2ccccc12)NC(=O)OC(C)(C)C` (stereo not given) (Boc-WWWWWW-OMe; configuration not given here), for which the EC50 was over 100 µM and the IC50 worked out at 60.3 µM.
Take `c1ccc(Nc2nnnn2-c2ccccc2)cc1`: the EC50 was over 200 µM and the IC50 is over 200 µM.
`Cc1c(C(Cc2ccccc2N(C)C(=O)/C=C\C(=O)O)c2c[nH]c3ccccc23)c2ccccc2n1C` (stereo not given): the EC50 was over 363 µM and the IC50 was 22.4 µM.
For `CCOC(=O)C(=O)C(CCC(=O)c1ccc2ccccc2c1O)C(=O)OCC` (stereo not given), the EC50 was over 468 µM and the IC50 was 389 µM.
As for `O=c1oc2ccccc2c(O)c1C(c1ccc2c(c1)OCO2)N1CCCC1` (stereo not given), the EC50 was over 200 µM and the IC50 was 93.3 µM.
Take `Cc1cc(C)nc(NC(N)=NCCc2ccccc2)n1`: the EC50 is over 200 µM and the IC50 is 3.31 µM.
For `O=C(CSSCC(=O)OCCS(=O)(=O)Nc1ccc(Br)cc1)OCCS(=O)(=O)Nc1ccc(Br)cc1`, the result was inactive.
For the molecule `O=C1C=C(Nc2cccnc2)c2ccccc2C1=O`, the EC50 is over 20.9 µM and the IC50 stood at 18.2 µM.
Consider `CN1OC(C#N)(C#N)C(C#N)(C#N)C1c1ccccc1` (stereo not given), for which the EC50 was over 200 µM and the IC50 was over 200 µM.
For the molecule `Nc1nc2c(c(=O)[nH]1)N(C=O)C(CNc1ccc(C(=O)N[C@@H](CCC(=O)O)C(=O)O)cc1)CN2` (stereo not given in full), the EC50 was over 200 µM and the IC50 is over 200 µM.
Consider `Cc1ccc(NC(=O)CC2C(=O)Nc3ccccc3S2(=O)=O)c(C)c1` (stereo not given), for which the EC50 was over 4.07 µM and the IC50 is over 4.07 µM.
`C[S+](C)c1ccc(Cl)cc1`: the EC50 was over 871 µM and the IC50 came to 69.2 µM.
Take `CCOC(=O)C1=[N+]([O-])OC2=C(O)CCCC21` (stereo not given): the outcome was inactive.
On to `O=C(O)C1C(C(=O)O)N2C(c3ccccc3)C(C(=O)O)C(C(=O)O)N2C1c1ccccc1` (stereo not given), for which the EC50 was over 214 µM and the IC50 was over 214 µM.
Turning to `CC(=O)O[C@H]1CCC2[C@@H]3CCC4C(=O)c5oncc5C[C@]4(C)C3CC[C@@]21C` (stereo not given in full), the result was inactive.
Take `Nc1nc(N)c2nc(CNc3ccc(C(=O)NC(CCC(=O)O)C(=O)O)cc3F)cnc2n1` (stereo not given): the EC50 is over 200 µM and the concentration for half-maximal inhibition (IC50) was found to be 0.0631 µM.
Take `CC1=NN(C(=O)CC(=O)Nc2ccc(Cl)cc2)C(=O)C1N=Nc1ccc(S(=O)(=O)c2ccc(N=NC3C(=O)N(C(=O)CC(=O)Nc4ccc(Cl)cc4)N=C3C)cc2)cc1` (stereo not given): the EC50 was over 50.1 µM and the IC50 was over 50.1 µM.
Take `CSCCC(NC(=O)Cc1ccc(C(=O)c2ccccc2)cc1)C(=O)N1CCN(CCCCN2c3ccccc3Sc3cc(N=[N+]=[N-])ccc32)CC1` (stereo not given): the EC50 was over 200 µM and the half-maximal inhibitory concentration (IC50) turned out to be 33.1 µM.
Turning to `NC1=C(c2nc(-c3ccccc3)cs2)C(c2ccc(Br)cc2)c2c(c3ccccc3oc2=O)O1` (stereo not given), the EC50 was over 200 µM and the IC50 is over 200 µM.
As to `CC(NC(=O)C(C)NC(=O)C(CC(N)=O)NC(=O)CN)C(=O)NC(CO)C(=O)NC(C)C(=O)NC(CCCN=C(N)N)C(N)=O` (stereo not given) (H-GNAASAR-NH2; configuration not given here), the result was inactive.
Regarding `Cc1cn(C2C=CC(COP(=O)(OCC(=O)c3ccccc3)OCC(=O)c3ccccc3)O2)c(=O)[nH]c1=O` (stereo not given), the EC50 was 0.851 µM and the IC50 came out at 110 µM.
As to `COC1=C(C)C(=O)c2nc(C)ccc2C1=O`, the result was inactive.
Consider `Cc1cc(C)c2c(c1)CC1(Cc3cc(C)c(C)cc3C1=O)C2=O` (stereo not given), for which the EC50 was over 100 µM and the IC50 is over 100 µM.
For the molecule `[N-]=[N+]=NCCCCCCCCCCCC(=O)O`, the EC50 is over 200 µM and the IC50 turned out to be 81.3 µM.
As to `c1cc2c(c(NC3=NCCO3)c1)CCC2`, the EC50 was over 200 µM and the IC50 was 112 µM.
Consider `Cc1ccc(N2CCc3c(C)c(C#N)c4nc5ccccc5n4c32)cc1`, for which the EC50 was over 200 µM and the IC50 is over 200 µM.
Consider `CSc1ccc(-c2cn3ccsc3n2)c(O)c1`, for which the EC50 was over 85.1 µM and the IC50 is 17.4 µM.
As to `COC(=O)[C@@H]1O[C@]12[C@@H](CO[Si](C)(C)C(C)(C)C)O[C@@H](n1cc(C)c(=O)[nH]c1=O)[C@@H]2O[Si](C)(C)C(C)(C)C`, the EC50 was over 200 µM and the IC50 came to 3.72 µM.
Take `CC1=NNC(=O)C1C(CC(=O)c1c[nH]c2ccccc12)C(=O)O` (stereo not given): the EC50 was over 200 µM and the half-inhibitory concentration (IC50) worked out at 126 µM.
On to `COc1cc2c3c(c1)SC(c1ccccc1)C(=O)N3CCN2` (stereo not given), for which the EC50 was over 200 µM and the IC50 is 14.1 µM.
As for `CC(=O)CN=C(C)NNc1ccc([N+](=O)[O-])cc1[N+](=O)[O-]`, the EC50 is over 200 µM and the IC50 worked out at 60.3 µM.
As to `O=C1NC(=S)NC(=O)C1=Cc1ccc(Cl)c(Cl)c1`, the EC50 was over 87.1 µM and the IC50 is over 87.1 µM.
With `COC1=CC(O)(CC(N)=O)c2ccccc2C1=O` (stereo not given), the EC50 is over 1000 µM and the IC50 is over 1000 µM.
As for `S=C1CNC(=S)CN1`, the outcome was inactive.
In the case of `Cn1cc(NC(=O)c2cc(NC(=O)CCCCCCC(=O)Nc3cc(C(=O)Nc4cc(C(=O)NCCC(=N)N)n(C)c4)n(C)c3)cn2C)cc1C(=O)NCCC(=N)N`, the EC50 is over 204 µM and the IC50 was found to be 35.5 µM.
Take `CCCOC(=O)CCC(NC(=O)c1ccc(Nc2nc3ccccc3nc2-c2cccs2)cc1)C(=O)OCCC` (stereo not given): the EC50 is over 4.9 µM and the IC50 was over 4.9 µM.
With `COc1ccc2c(c1)OC[C@@H]1c3cc(O)c4c(OC)cccc4c3O[C@H]21`, the EC50 is over 100 µM and the half-maximal inhibitory concentration (IC50) came out at 44.7 µM.
With `COC(=O)/C=C(\C(=O)OC)C1C(=O)Oc2c(C)c(=O)c3ccccc3n21` (stereo not given), the EC50 was over 200 µM and the IC50 was 60.3 µM.
